Results: patent publication US20080286388A1, “Pharmaceutical Composition and Non Dependence Coffee Comprising Edible Carboxylic Acid and/or Its Acid Salts and Coffeine” (priority 2004, published 2008)
≈ marks a conversion by molar mass, not a printed value. Like-named read-outs stand apart in the source and are kept apart here. One block for each compound: values may come before it.

Experiments:
[1] = test system: mouse's leaching cell solution (abdominal cavity cells), histamine release by 48/80 compound; test: Drug inhibiting effect on histamine leaching from mouse abdominal cavity cells treated with 48/80 compound; format: cell-based; settings: for inhibition at 100 µg/mL / IC50 / inhibition at 2 µg/mL / inhibition at 5 µg/mL / inhibition at 10 µg/mL / inhibition at 50 µg/mL / inhibition at 300 µg/mL / inhibition at 1000 µg/mL: Mus musculus; for IC50: read-out: IC50 value (concentration for inhibiting rate of 50%)
Procedure: This is a comparative testing for drug depressing effect on the amount of leaching histamines when is treated with 48/80 (Sigma, St. MO, USA) compound.
(1). Preparation of Leaching Cell Solution from Mouse Body.
A mouse is killed and bloodletting. Then 10 ml of Locke's solution containing 0.1% bovine serum protein is injected into its abdominal cavity. After abdominal cavity being light massaged, the cavity is cut and the Locke's solution is removed. Cavity is washed with another 5 ml of Locke's solution, and this washed solution is added to the latter one. This combined solution is centrifuged at 600 rpm for 5 minutes. The sediments are washed with 5 ml of cool Locke's solution. Adding 3 ml of cold Locke's solution to the washed sediments, then a leached cell solution of abdominal cavity is obtained. (The composition of Locke's solution is: NaCL […], KCL 0.2%, CaCL2 0.15%, glucose 1.0%, in w/v, and the rest distillated water.)
(2). Drug Inhibiting Effect on the Amount of Leaching Histamines when Treated with 48/80 Compound.
1.0 ml of each of those solutions in last term is mixed with 0.3 ml of mouse's leaching cell solution and 0.5 ml of Locke's solution. This mixture is cultivated at 37° C. for 5 minutes. Then adding 0.2 ml of Locke's solution of 48/80 compound (1 mg/100 ml) and cultivated at 37° C. for 10 minutes. Then the reaction is stopped by cooling, and centrifuged at 2,500 rpm for 10 minutes. 1.7 ml of decanted solution and 0.3 ml of sediments are obtained.
0.1 ml of water and 0.2 ml of 100% trichloroacetic acid are added to the decanted solution. 1.5 ml of Locke's solution and 0.2 ml of 100% trichloroacetic acid are added to the sediments washed solution. They are cultivated at room temperature for 30 minutes. After cultivation, the mixtures are centrifuged at 3,000 rpm for 15 minutes, respectively. 0.35 ml of each of the former two solutions is sampled. In each sample, 1.65 ml of water, 0.4 ml of 1N NaOH and 0.1 ml of 0.5% OPT (o-phthalic aldehyde) in methanol are added and cultivated at room temperature for 4 minutes. The reaction is stopped by adding 0.2 ml of 2M citric acid. And finally, determine the amount of released histamines in the tested solution by fluorescence method. By the analysis, results of the inhibiting rate of histamines could be calculated.
Locke's solution is instead of each drug in control group, and instead of both drug and 48/80 compound solution in blank group.
The histamine releasing rate (A) can be calculated by following equation. […] Where (Hs) is the total amount of histamine in the decanted solution, and (Hr) is the total amount of histamine in the sediment. (A)=[(Hs)/{(Hs)+(Hr)}]×100%. Then the inhibiting rate is:
=100−[(A−A in blank group)/(A−A in control group)]×100%.

[2] = test system: person; test: Tests for increase the ability of learning and memory; format: in vivo, human; settings: three pieces of 600 mg, average of four tests before and after ingesting; for change in vivo at 1800 mg: Homo sapiens, po, read-out: Increase rate (%) of memory ability
Procedure: A person administrates see a random series of 100 numbers, typed by PC, for 10 minutes and memory it. Then recite and write down the memorized number series. To check the recited series with the original one to see how many numbers are correct. In each testing at least has 10 minutes interval, and repeat four times. […] Each kind of drugs testing is done in half day, morning or afternoon only. The testing results were counted by one correct number for one point. Make the average value of four times testing of before and after drug ingesting, respectively. The increase of learning or memory ability is calculated by following equation and listed in Table 14: Rate of increase of memory ability=[(average value of four time testing before ingesting drug)−(average value of four times testing after ingesting drug)]×100%/(average value of four time testing before ingesting drug)

[3] = testing drug 100 μg/ml, adding 5% of coffee extract
[4] = testing drug 100 μg/ml, non adding coffee extract
[5] = testing drug 100 μg/ml, adding 5% of coffee extract, read-out: inhibiting rate (%) (adding 5% of coffee extract)
[6] = testing drug 100 μg/ml, non adding coffee extract, read-out: Inhibiting rate (%) (non adding coffee extract)
[7] = adding 5% of coffee extract, calculated by figure
[8] = dose 2 μg/ml, adding 5% of coffee extract
[9] = dose 5 μg/ml, adding 5% of coffee extract
[10] = dose 10 μg/ml, adding 5% of coffee extract
[11] = dose 50 μg/ml, adding 5% of coffee extract
[12] = dose 100 μg/ml, adding 5% of coffee extract
[13] = dose 300 μg/ml, adding 5% of coffee extract
[14] = dose 1000 μg/ml, adding 5% of coffee extract

Compound: O=C([O-])/C=C/C(=O)O.[Na+] [sodium hydrogen fumate]
- inhibiting rate (%) (adding 5% of coffee extract) [1, 3]: 100%
- Inhibiting rate (%) (non adding coffee extract) [1, 4]: 100%

Compound: CC(=O)O [acetic acid]
- inhibition at 100 µg/mL [1, 5]: 100%
- inhibition at 100 µg/mL [1, 6]: 100%
- change in vivo at 1800 mg [2]: 307%

Compound: O=C(O)CCC(=O)C(=O)O [keto-glutaric acid]
- inhibiting rate (%) (adding 5% of coffee extract) [1, 3]: 100%
- Inhibiting rate (%) (non adding coffee extract) [1, 4]: 100%
- Increase rate (%) of memory ability [2]: 321%

Compound: O=C(O)CC(=O)C(=O)O [oxalacetic acid]
- inhibition at 100 µg/mL [1, 5]: 100%
- inhibition at 100 µg/mL [1, 6]: 100%
- change in vivo at 1800 mg [2]: 310%

Compound: O=C(O)CO [α-hydroxy ethanoic acid]
- inhibiting rate (%) (adding 5% of coffee extract) [1, 3]: 100%
- Inhibiting rate (%) (non adding coffee extract) [1, 4]: 100%
- Increase rate (%) of memory ability [2]: 300%

Compound: CCC(=O)O [propionic acid]
- inhibition at 100 µg/mL [1, 5]: 100%
- inhibition at 100 µg/mL [1, 6]: 100%
- change in vivo at 1800 mg [2]: 296%

Compound: Diphenhydramine citrate [reference compound]
- inhibiting rate (%) (adding 5% of coffee extract) [1, 3]: 55.5%
- Inhibiting rate (%) (non adding coffee extract) [1, 4]: 37.5%

- IC50 value (concentration for inhibiting rate of 50%) [1, 7]: 200 µg/mL
Compound: CC1(C)[C@@H](O[C@H]2O[C@H](C(=O)[O-])[C@@H](O)[C@H](O)[C@H]2O[C@@H]2O[C@H](C(=O)[O-])[C@@H](O)[C@H](O)[C@H]2O)CC[C@]2(C)[C@H]3C(=O)C=C4[C@@H]5C[C@@](C)(C(=O)[O-])CC[C@]5(C)CC[C@@]4(C)[C@]3(C)CC[C@@H]12.[Na+].[Na+].[Na+] [Trisodium glycyrrhizinate, reference compound]
- Histamine releasing rate (%) [1, 8]: 90.1%
- Inhibiting rate (%) [1, 8]: 0.8%
- Histamine releasing rate (%) [1, 9]: 89.5%
- Inhibiting rate (%) [1, 9]: 1.6%
- Histamine releasing rate (%) [1, 10]: 88.1%
- Inhibiting rate (%) [1, 10]: 3.3%
- Inhibiting rate (%) [1, 11]: 17.8%
- Histamine releasing rate (%) [1, 12]: 65.5%
- Inhibiting rate (%) [1, 12]: 31.1%
- Histamine releasing rate (%) [1, 13]: 32.7%
- Inhibiting rate (%) [1, 13]: 70.5%
- Histamine releasing rate (%) [1, 14]: 9.2%
- Inhibiting rate (%) [1, 14]: 100%
- inhibiting rate (%) (adding 5% of coffee extract) [1, 3]: 48.3%
- Inhibiting rate (%) (non adding coffee extract) [1, 4]: 30.9%

Compound: O=C([O-])CC(O)C(=O)O.[Na+] (centres unmarked) [sodium hydrogen malate]
- inhibiting rate (%) (adding 5% of coffee extract) [1, 3]: 100%
- Inhibiting rate (%) (non adding coffee extract) [1, 4]: 100%

Compound: O=C(O)CCC(=O)O [Succinic acid]
- IC50 [1, 7]: 5.8 µg/mL (≈ 49.1 µM)
- inhibition at 2 µg/mL ([1]; dose 2 μg/ml, adding 5% of coffee extract, read-out: Inhibiting rate (%)): 24.9%
- inhibition at 2 µg/mL ([1]; dose 2 μg/ml, non-adding coffee extract, read-out: Inhibiting rate (%)): 17.9%
- inhibition at 5 µg/mL ([1]; dose 5 μg/ml, adding 5% of coffee extract, read-out: Inhibiting rate (%)): 43.6%
- inhibition at 5 µg/mL ([1]; dose 5 μg/ml, non-adding coffee extract, read-out: Inhibiting rate (%)): 37.7%
- inhibition at 10 µg/mL ([1]; dose 10 μg/ml, adding 5% of coffee extract, read-out: Inhibiting rate (%)): 87.9%
- inhibition at 10 µg/mL ([1]; dose 10 μg/ml, non-adding coffee extract, read-out: Inhibiting rate (%)): 84%
- inhibition at 50 µg/mL ([1]; dose 50 μg/ml, adding 5% of coffee extract, read-out: Inhibiting rate (%)): 100%
- inhibition at 50 µg/mL ([1]; dose 50 μg/ml, non-adding coffee extract, read-out: Inhibiting rate (%)): 100%
- inhibition at 100 µg/mL ([1]; dose 100 μg/ml, adding 5% of coffee extract, read-out: Inhibiting rate (%)): 100%
- inhibition at 100 µg/mL ([1]; dose 100 μg/ml, non-adding coffee extract, read-out: Inhibiting rate (%)): 100%
- inhibition at 300 µg/mL ([1]; dose 300 μg/ml, adding 5% of coffee extract, read-out: Inhibiting rate (%)): 100%
- inhibition at 300 µg/mL ([1]; dose 300 μg/ml, non-adding coffee extract, read-out: Inhibiting rate (%)): 100%
- inhibition at 1000 µg/mL ([1]; dose 1000 μg/ml, adding 5% of coffee extract, read-out: Inhibiting rate (%)): 100%
- inhibition at 1000 µg/mL ([1]; dose 1000 μg/ml, non-adding coffee extract, read-out: Inhibiting rate (%)): 100%
- IC50 ([1]; non-adding coffee extract, calculated by figure): 7 µg/mL (≈ 59.3 µM)
- inhibition at 100 µg/mL [1, 5]: 100%
- inhibition at 100 µg/mL [1, 6]: 100%
- Histamine releasing rate (%) [1, 8]: 70.5%
- Histamine releasing rate (%) ([1]; dose 2 μg/ml, non-adding coffee extract): 76.2%
- Histamine releasing rate (%) [1, 9]: 55.3%
- Histamine releasing rate (%) ([1]; dose 5 μg/ml, non-adding coffee extract): 60.1%
- Histamine releasing rate (%) [1, 10]: 19.3%
- Histamine releasing rate (%) ([1]; dose 10 μg/ml, non-adding coffee extract): 22.5%
- Histamine releasing rate (%) [1, 11]: 9.1%
- Histamine releasing rate (%) ([1]; dose 50 μg/ml, non-adding coffee extract): 9.1%
- Histamine releasing rate (%) [1, 12]: 9.3%
- Histamine releasing rate (%) ([1]; dose 100 μg/ml, non-adding coffee extract): 9.3%
- Histamine releasing rate (%) [1, 13]: 9.4%
- Histamine releasing rate (%) ([1]; dose 300 μg/ml, non-adding coffee extract): 9.4%
- Histamine releasing rate (%) [1, 14]: 9.4%
- Histamine releasing rate (%) ([1]; dose 1000 μg/ml, non-adding coffee extract): 9.4%
- change in vivo at 1800 mg [2]: 330%

Compound: O=C([O-])CC(O)(CC(=O)[O-])C(=O)O.[Na+].[Na+] [disodium hydrogen citrate]
- inhibiting rate (%) (adding 5% of coffee extract) [1, 3]: 49.4%
- Inhibiting rate (%) (non adding coffee extract) [1, 4]: 39.1%

Compound: O=C(O)C=C(CC(=O)O)C(=O)O [aconitic acid]
- inhibition at 100 µg/mL [1, 5]: 40%
- inhibition at 100 µg/mL [1, 6]: 100%
- change in vivo at 1800 mg [2]: 315%

Compound: O=C([O-])CC(O)(CC(=O)O)C(=O)[O-].[K+].[K+] [dipotassium hydrogen citrate]
- inhibiting rate (%) (adding 5% of coffee extract) [1, 3]: 48.7%
- Inhibiting rate (%) (non adding coffee extract) [1, 4]: 40.0%

Compound: O=C([O-])/C=C\C(=O)O.[Na+] [sodium hydrogen maleate]
- inhibiting rate (%) (adding 5% of coffee extract) [1, 3]: 100%
- Inhibiting rate (%) (non adding coffee extract) [1, 4]: 100%

Compound: O=C([O-])/C=C/C(=O)O.[K+] [potassium hydrogen fumate]
- inhibiting rate (%) (adding 5% of coffee extract) [1, 3]: 100%
- Inhibiting rate (%) (non adding coffee extract) [1, 4]: 100%

Compound: O=C([O-])CCC(=O)O.[Na+] [sodium hydrogen succinate]
- inhibiting rate (%) (adding 5% of coffee extract) [1, 3]: 100%
- Inhibiting rate (%) (non adding coffee extract) [1, 4]: 100%

Compound: O=C([O-])/C=C\C(=O)O.[K+] [potassium hydrogen maleate]
- inhibiting rate (%) (adding 5% of coffee extract) [1, 3]: 100%
- Inhibiting rate (%) (non adding coffee extract) [1, 4]: 100%

Compound: O=C([O-])C(O)C(O)C(=O)O.[K+] (centres unmarked) [potassium hydrogen tartrate]
- inhibiting rate (%) (adding 5% of coffee extract) [1, 3]: 100%
- Inhibiting rate (%) (non adding coffee extract) [1, 4]: 100%

Compound: O=C(O)CC(O)(CC(=O)O)C(=O)[O-].[Na+] [sodium dihydrogen citrate]
- inhibiting rate (%) (adding 5% of coffee extract) [1, 3]: 100%
- Inhibiting rate (%) (non adding coffee extract) [1, 4]: 100%

Compound: O=C([O-])CC(O)(CC(=O)O)C(=O)O.[K+] [potassium dihydrogen citrate]
- inhibiting rate (%) (adding 5% of coffee extract) [1, 3]: 100%
- Inhibiting rate (%) (non adding coffee extract) [1, 4]: 100%

Compound: O=C([O-])C(O)C(O)C(=O)O.[Na+] (centres unmarked) [sodium hydrogen tartrate]
- inhibiting rate (%) (adding 5% of coffee extract) [1, 3]: 100%
- Inhibiting rate (%) (non adding coffee extract) [1, 4]: 100%

Compound: O=C(O)CC(O)C(=O)O.[K] (centres unmarked) [potassium hydrogen malate]
- inhibiting rate (%) (adding 5% of coffee extract) [1, 3]: 100%
- Inhibiting rate (%) (non adding coffee extract) [1, 4]: 100%

Compound: O=C(O)/C=C\C(=O)O [Maleic acid]
- change in vivo at 1800 mg [2]: 370%

Compound: O=C([O-])CCC(=O)O.[K+] [potassium hydrogen succinate]
- inhibiting rate (%) (adding 5% of coffee extract) [1, 3]: 100%
- Inhibiting rate (%) (non adding coffee extract) [1, 4]: 100%
